Source: patent US11225505B2, “Antimicrobial polymyxin derivative compounds” (MONASH UNIVERSITY, priority 2015, dated 2022)
Like-named read-outs stand apart in the source and are kept apart here. Where a SMILES comes first, the peptide text is derived from it. Bridges are numbered along the chain shown (N, C = ends). [ ]: non-standard residue; d: D form. The star is where a group is joined. X18 = O=C(c1cc(-c2ccccc2)[nH]n1)*; X66 = O=C(c1c[nH]c(-c2ccccc2)n1)*; X44 = O=C(c1cc(-c2ccccc2)no1)*; X64 = O=C(c1noc(-c2ccccc2)n1)*; X20 = O=C(c1ccc(C(F)(F)F)s1)*; X62 = O=C(c1cc(Br)c(Br)s1)*; X50 = O=C(c1sc(Br)cc1Br)*; Dab = NCC[C@H](N)C(=O)O; X10 = O=C(c1cc(Br)cs1)*; Abu = CC[C@H](N)C(=O)O; Dap = NC[C@H](N)C(=O)O

Tests used:
Format in all cases: cell-based
[1] = system: Acinetobacter baumannii ATCC 17978
Outline: (§1)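 Broth microdilution, CAMHB, per CLSI M100-S24; lipopeptides as TFA salts; polymyxin B sulphate control. Read-out: MIC. Strains are polymyxin-susceptible; PA022 and AB034 are MDR clinical isolates.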

[2] = system: Acinetobacter baumannii FADDI-AB034
Outline: as §1

[3] = system: Enterobacter cloacae FADDI-EC001
Outline: (§2)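 Lipopeptide TFA salts were serially diluted in cation-adjusted Mueller-Hinton broth, inoculated with polymyxin-susceptible Gram-negative bacteria and scored for MIC according to CLSI guidance (M100-S24). Polymyxin B sulphate was included as comparator.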

[4] = system: Enterobacter cloacae FADDI-EC003
Outline: as §1

[5] = system: Enterobacter cloacae FADDI-EC006
Outline: as §1

[6] = system: Klebsiella pneumoniae FADDI-KP022
Outline: as §1

[7] = system: Klebsiella pneumoniae FADDI-KP032
Outline: as §1

[8] = system: Klebsiella pneumoniae Kp BM1
Outline: as §2

[9] = system: Pseudomonas aeruginosa ATCC 27853
Outline: as §1

[10] = system: Pseudomonas aeruginosa FADDI-PA01
Outline: as §1

[11] = system: Pseudomonas aeruginosa FADDI-PA022
Outline: as §1

[12] = system: Pseudomonas aeruginosa FADDI-PA038
Outline: as §1

[13] = system: Acinetobacter baumannii FADDI-AB030; experiment: microbe, parasite or virus in culture
Outline: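 Lipopeptide TFA salts tested against the multidrug-resistant clinical isolate by CLSI (M100-S24) broth microdilution in cation-adjusted Mueller-Hinton broth, with polymyxin B sulphate as control; MIC read.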

Measured: Minimum inhibitory concentration

CC[C@@H]1NC(=O)[C@@H](CC(C)C)NC(=O)[C@H](CCN)NC(=O)[C@@H](NC(=O)[C@H](CN)NC(=O)[C@@H](NC(=O)[C@H](CCN)NC(=O)c2noc(-c3ccccc3)n2)[C@@H](C)O)CCNC(=O)[C@H]([C@@H](C)O)NC(=O)[C@H](CCN)NC(=O)[C@H](CCN)NC1=O [Compound 81] (X64-[Dab]T[Dap][Dab][Dab][dL][Abu][Dab][Dab]T; lactam 4-C)
1 mg/L: [9]; ATCC 27853 | [12]; FADDI-PA038
0.25 mg/L: [5]; FADDI-EC006
4 mg/L: [2]; FADDI-AB034
0.5 mg/L: [7]; FADDI-KP032 | [8]; Kp BM1 | [10]; FADDI- | [11]; FADDI-PA022
2 mg/L: [1]; ATCC 17978 | [13]; FADDI-AB030
<0.125 mg/L: [3]; FADDI-EC001 | [4]; FADDI-EC003 | [6]; FADDI-KP022

CC[C@@H]1NC(=O)[C@@H](CC(C)C)NC(=O)[C@H](CCN)NC(=O)[C@@H](NC(=O)[C@H](CN)NC(=O)[C@@H](NC(=O)[C@H](CCN)NC(=O)c2c[nH]c(-c3ccccc3)n2)[C@@H](C)O)CCNC(=O)[C@H]([C@@H](C)O)NC(=O)[C@H](CCN)NC(=O)[C@H](CCN)NC1=O [Compound 82] (X66-[Dab]T[Dap][Dab][Dab][dL][Abu][Dab][Dab]T; lactam 4-C)
0.5 mg/L: [5]; E. cloacae FADDI-EC006, CAMHB broth microdilution | [7]; K. pneumoniae FADDI-KP032, CAMHB broth microdilution | [9]; P. aeruginosa ATCC 27853, CAMHB broth microdilution | [10]; P. aeruginosa FADDI-PA01, CAMHB broth microdilution | [11]; P. aeruginosa FADDI-PA022, CAMHB broth microdilution
4 mg/L: [13]; A. baumannii FADDI-AB030, CAMHB broth microdilution
1 mg/L: [8]; K. pneumoniae Kp BM1, CAMHB broth microdilution
0.25 mg/L: [3]; E. cloacae FADDI-EC001, CAMHB broth microdilution | [4]; E. cloacae FADDI-EC003, CAMHB broth microdilution
8 mg/L: [2]; A. baumannii FADDI-AB034, CAMHB broth microdilution
2 mg/L: [1]; A. baumannii ATCC 17978, CAMHB broth microdilution | [12]; P. aeruginosa FADDI-PA038, CAMHB broth microdilution
<0.125 mg/L: [6]; K. pneumoniae FADDI-KP022, CAMHB broth microdilution

CC[C@@H]1NC(=O)[C@@H](CC(C)C)NC(=O)[C@H](CCN)NC(=O)[C@@H](NC(=O)[C@H](CN)NC(=O)[C@@H](NC(=O)[C@H](CCN)NC(=O)c2cc(Br)c(Br)s2)[C@@H](C)O)CCNC(=O)[C@H]([C@@H](C)O)NC(=O)[C@H](CCN)NC(=O)[C@H](CCN)NC1=O [Compound 83] (X62-[Dab]T[Dap][Dab][Dab][dL][Abu][Dab][Dab]T; lactam 4-C)
0.25 mg/L: [1]; ATCC 17978 | [4]; FADDI-EC003 | [7]; FADDI-KP032 | [9]; ATCC 27853 | [10]; FADDI- | [11]; FADDI-PA022
0.5 mg/L: [3]; FADDI-EC001 | [12]; FADDI-PA038
<0.125 mg/L: [2]; FADDI-AB034 | [5]; FADDI-EC006 | [6]; FADDI-KP022 | [8]; Kp BM1 | [13]; FADDI-AB030

CC[C@@H]1NC(=O)[C@@H](CC(C)C)NC(=O)[C@H](CCN)NC(=O)[C@@H](NC(=O)[C@H](CN)NC(=O)[C@@H](NC(=O)[C@H](CCN)NC(=O)c2cc(-c3ccccc3)[nH]n2)[C@@H](C)O)CCNC(=O)[C@H]([C@@H](C)O)NC(=O)[C@H](CCN)NC(=O)[C@H](CCN)NC1=O [Compound 84] (X18-[Dab]T[Dap][Dab][Dab][dL][Abu][Dab][Dab]T; lactam 4-C)
0.5 mg/L: [1]; ATCC 17978 | [2]; FADDI-AB034 | [12]; FADDI-PA038 | [13]; FADDI-AB030
0.25 mg/L: [3]; FADDI-EC001 | [7]; FADDI-KP032 | [9]; ATCC 27853 | [10]; FADDI- | [11]; FADDI-PA022
<0.125 mg/L: [4]; FADDI-EC003 | [5]; FADDI-EC006 | [6]; FADDI-KP022 | [8]; Kp BM1

CC[C@@H]1NC(=O)[C@@H](CC(C)C)NC(=O)[C@H](CCN)NC(=O)[C@@H](NC(=O)[C@H](CN)NC(=O)[C@@H](NC(=O)[C@H](CCN)NC(=O)c2sc(Br)cc2Br)[C@@H](C)O)CCNC(=O)[C@H]([C@@H](C)O)NC(=O)[C@H](CCN)NC(=O)[C@H](CCN)NC1=O [Compound 85] (X50-[Dab]T[Dap][Dab][Dab][dL][Abu][Dab][Dab]T; lactam 4-C)
0.5 mg/L: [12]; FADDI-PA038
0.25 mg/L: [2]; FADDI-AB034 | [3]; FADDI-EC001 | [4]; FADDI-EC003 | [8]; Kp BM1 | [9]; ATCC 27853 | [10]; FADDI- | [11]; FADDI-PA022
<0.125 mg/L: [1]; ATCC 17978 | [5]; FADDI-EC006 | [6]; FADDI-KP022 | [7]; FADDI-KP032 | [13]; FADDI-AB030

CC[C@@H]1NC(=O)[C@@H](CC(C)C)NC(=O)[C@H](CCN)NC(=O)[C@@H](NC(=O)[C@H](CN)NC(=O)[C@@H](NC(=O)[C@H](CCN)NC(=O)c2ccc(C(F)(F)F)s2)[C@@H](C)O)CCNC(=O)[C@H]([C@@H](C)O)NC(=O)[C@H](CCN)NC(=O)[C@H](CCN)NC1=O [Compound 86] (X20-[Dab]T[Dap][Dab][Dab][dL][Abu][Dab][Dab]T; lactam 4-C)
1 mg/L: [12]; FADDI-PA038
0.5 mg/L: [9]; ATCC 27853 | [10]; FADDI- | [11]; FADDI-PA022
0.25 mg/L: [4]; FADDI-EC003 | [5]; FADDI-EC006 | [8]; Kp BM1 | [13]; FADDI-AB030
<0.125 mg/L: [1]; ATCC 17978 | [2]; FADDI-AB034 | [3]; FADDI-EC001 | [6]; FADDI-KP022 | [7]; FADDI-KP032

CC[C@@H]1NC(=O)[C@@H](CC(C)C)NC(=O)[C@H](CCN)NC(=O)[C@@H](NC(=O)[C@H](CN)NC(=O)[C@@H](NC(=O)[C@H](CCN)NC(=O)c2cc(-c3ccccc3)no2)[C@@H](C)O)CCNC(=O)[C@H]([C@@H](C)O)NC(=O)[C@H](CCN)NC(=O)[C@H](CCN)NC1=O [Compound 87] (X44-[Dab]T[Dap][Dab][Dab][dL][Abu][Dab][Dab]T; lactam 4-C)
0.25 mg/L: [5]; FADDI-EC006 | [7]; FADDI-KP032
1 mg/L: [9]; ATCC 27853 | [12]; FADDI-PA038
0.5 mg/L: [1]; ATCC 17978 | [2]; FADDI-AB034 | [8]; Kp BM1 | [10]; FADDI- | [11]; FADDI-PA022 | [13]; FADDI-AB030
<0.125 mg/L: [3]; FADDI-EC001 | [4]; FADDI-EC003 | [6]; FADDI-KP022

CC[C@@H]1NC(=O)[C@@H](CC(C)C)NC(=O)[C@H](CCN)NC(=O)[C@@H](NC(=O)[C@H](CN)NC(=O)[C@@H](NC(=O)[C@H](CCN)NC(=O)c2cc(Br)cs2)[C@@H](C)O)CCNC(=O)[C@H]([C@@H](C)O)NC(=O)[C@H](CCN)NC(=O)[C@H](CCN)NC1=O [Compound 88] (X10-[Dab]T[Dap][Dab][Dab][dL][Abu][Dab][Dab]T; lactam 4-C)
<0.125 mg/L: [3]; FADDI-EC001 | [6]; FADDI-KP022
0.25 mg/L: [8]; Kp BM1
0.5 mg/L: [1]; ATCC 17978 | [2]; FADDI-AB034 | [4]; FADDI-EC003 | [5]; FADDI-EC006 | [7]; FADDI-KP032 | [9]; ATCC 27853 | [10]; FADDI- | [11]; FADDI-PA022 | [12]; FADDI-PA038 | [13]; FADDI-AB030
